The structures appear in SMILES notation.

Test [1] concerns the target Tolloid-like protein 1 (Homo sapiens, UniProt O43897, I156V/N221S/V284A). As to the kind of experiment: Inhibition of recombinant human TLL1 I156V/N221S/V284A mutant expressed in CHOE1A cells pre-incubated for 10 mins before promyostatin peptide substrate addition and measured after 60 mins by FRET based assay. In kind it is cell-based.
Test [2] deals with T1, Tolloid-like protein 2 (Homo sapiens, UniProt Q9Y6L7).
T1 sequence (Q9Y6L7 whole entry): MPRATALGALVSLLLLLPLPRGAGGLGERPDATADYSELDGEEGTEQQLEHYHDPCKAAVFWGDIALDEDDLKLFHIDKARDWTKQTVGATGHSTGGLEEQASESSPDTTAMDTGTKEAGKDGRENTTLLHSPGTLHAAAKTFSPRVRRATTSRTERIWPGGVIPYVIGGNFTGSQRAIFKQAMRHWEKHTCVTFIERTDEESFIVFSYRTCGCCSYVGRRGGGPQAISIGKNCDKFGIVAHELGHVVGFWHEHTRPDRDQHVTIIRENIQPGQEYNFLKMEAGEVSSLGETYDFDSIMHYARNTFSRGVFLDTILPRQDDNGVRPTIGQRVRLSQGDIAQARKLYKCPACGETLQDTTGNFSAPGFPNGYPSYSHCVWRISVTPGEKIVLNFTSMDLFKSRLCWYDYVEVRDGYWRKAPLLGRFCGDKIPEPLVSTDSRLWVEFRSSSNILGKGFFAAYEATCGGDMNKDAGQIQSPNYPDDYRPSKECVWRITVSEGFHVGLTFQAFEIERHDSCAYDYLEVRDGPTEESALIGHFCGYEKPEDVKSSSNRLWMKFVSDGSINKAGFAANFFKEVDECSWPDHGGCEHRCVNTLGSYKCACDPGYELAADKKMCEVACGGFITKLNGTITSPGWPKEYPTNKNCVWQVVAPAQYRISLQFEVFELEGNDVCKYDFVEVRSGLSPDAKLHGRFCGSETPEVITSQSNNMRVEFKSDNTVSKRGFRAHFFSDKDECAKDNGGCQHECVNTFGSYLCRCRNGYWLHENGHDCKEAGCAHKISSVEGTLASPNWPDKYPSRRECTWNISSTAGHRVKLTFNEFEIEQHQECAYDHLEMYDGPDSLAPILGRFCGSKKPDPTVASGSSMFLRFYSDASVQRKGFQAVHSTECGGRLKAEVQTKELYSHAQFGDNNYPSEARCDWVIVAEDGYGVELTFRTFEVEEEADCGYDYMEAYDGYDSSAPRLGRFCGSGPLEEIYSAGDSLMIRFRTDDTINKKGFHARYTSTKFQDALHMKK
As to the kind of experiment: Inhibition of C-terminal Avi-6x-His epitope tagged and N-terminal human RAGE signal sequence tagged recombinant human TLL2 (26 to 1015 amino acids) expressed in CHOE1A cells incubated for 60 mins with promyostatin peptide substrate by FRET based assay. It counts as cell-based.

For test [3], the target named is T2, Bone morphogenetic protein 1 (Homo sapiens, UniProt P13497).
T2 sequence (P13497 whole entry): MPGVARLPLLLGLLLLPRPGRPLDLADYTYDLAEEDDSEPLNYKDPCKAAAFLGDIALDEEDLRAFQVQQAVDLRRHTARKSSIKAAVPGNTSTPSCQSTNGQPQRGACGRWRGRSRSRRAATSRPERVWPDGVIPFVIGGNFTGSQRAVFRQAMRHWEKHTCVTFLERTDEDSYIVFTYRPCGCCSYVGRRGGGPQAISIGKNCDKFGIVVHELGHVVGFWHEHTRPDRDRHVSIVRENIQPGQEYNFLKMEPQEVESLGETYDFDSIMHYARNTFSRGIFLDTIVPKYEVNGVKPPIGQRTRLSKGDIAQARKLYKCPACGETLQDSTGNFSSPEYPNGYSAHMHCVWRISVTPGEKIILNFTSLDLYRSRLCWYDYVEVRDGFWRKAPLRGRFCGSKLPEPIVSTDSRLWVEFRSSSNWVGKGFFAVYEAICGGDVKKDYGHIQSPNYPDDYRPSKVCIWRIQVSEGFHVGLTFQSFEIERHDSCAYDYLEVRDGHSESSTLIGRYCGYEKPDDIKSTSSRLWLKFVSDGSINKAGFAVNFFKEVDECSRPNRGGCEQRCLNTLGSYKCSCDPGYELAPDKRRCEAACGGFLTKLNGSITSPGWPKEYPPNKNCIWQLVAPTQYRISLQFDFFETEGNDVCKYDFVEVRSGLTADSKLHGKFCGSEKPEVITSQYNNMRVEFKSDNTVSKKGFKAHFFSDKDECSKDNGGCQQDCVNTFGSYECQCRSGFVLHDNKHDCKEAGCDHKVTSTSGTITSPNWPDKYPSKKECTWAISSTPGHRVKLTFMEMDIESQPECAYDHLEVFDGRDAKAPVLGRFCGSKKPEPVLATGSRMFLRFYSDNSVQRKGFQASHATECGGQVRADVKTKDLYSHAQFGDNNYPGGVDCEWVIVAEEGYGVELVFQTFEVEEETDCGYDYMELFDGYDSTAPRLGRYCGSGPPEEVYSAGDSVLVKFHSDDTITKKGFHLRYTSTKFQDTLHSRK
As to the kind of experiment: Inhibition of C-terminal FLAG-6x-His epitope tagged and N-terminal human RAGE signal sequence tagged human BMP1 (23 to 721 amino acids) expressed in CHO-E1A cells pre-incubated for 10 mins before promyostatin peptide substrate addition and measured after 60 mins using 0.5 nM BMP1 by FRET based assay. It counts as cell-based.

Test [4] deals with T2, Bone morphogenetic protein 1. Description: Inhibition of C-terminal FLAG-6x-His epitope tagged and N-terminal human RAGE signal sequence tagged human BMP1 (23 to 721 amino acids) expressed in CHO-E1A cells pre-incubated for 10 mins before promyostatin peptide substrate addition and measured after 30 mins using 50 nM BMP1 by FRET based assay. It counts as cell-based.
Test [5] in a line: Reduction in PICP levels in human cardiac fibroblasts incubated for 24 to 48 hrs by ELISA. In kind it is functional. In general terms: ELISA stands for enzyme-linked immunosorbent assay.
The nature of test [6]: Reduction in mature collagen deposition levels in human cardiac fibroblasts incubated for 24 to 48 hrs by immunostaining based assay. In kind it is functional.

Sequence of Tolloid-like protein 1 (O43897 148-1013 I156V/N221S/V284A limits assumed): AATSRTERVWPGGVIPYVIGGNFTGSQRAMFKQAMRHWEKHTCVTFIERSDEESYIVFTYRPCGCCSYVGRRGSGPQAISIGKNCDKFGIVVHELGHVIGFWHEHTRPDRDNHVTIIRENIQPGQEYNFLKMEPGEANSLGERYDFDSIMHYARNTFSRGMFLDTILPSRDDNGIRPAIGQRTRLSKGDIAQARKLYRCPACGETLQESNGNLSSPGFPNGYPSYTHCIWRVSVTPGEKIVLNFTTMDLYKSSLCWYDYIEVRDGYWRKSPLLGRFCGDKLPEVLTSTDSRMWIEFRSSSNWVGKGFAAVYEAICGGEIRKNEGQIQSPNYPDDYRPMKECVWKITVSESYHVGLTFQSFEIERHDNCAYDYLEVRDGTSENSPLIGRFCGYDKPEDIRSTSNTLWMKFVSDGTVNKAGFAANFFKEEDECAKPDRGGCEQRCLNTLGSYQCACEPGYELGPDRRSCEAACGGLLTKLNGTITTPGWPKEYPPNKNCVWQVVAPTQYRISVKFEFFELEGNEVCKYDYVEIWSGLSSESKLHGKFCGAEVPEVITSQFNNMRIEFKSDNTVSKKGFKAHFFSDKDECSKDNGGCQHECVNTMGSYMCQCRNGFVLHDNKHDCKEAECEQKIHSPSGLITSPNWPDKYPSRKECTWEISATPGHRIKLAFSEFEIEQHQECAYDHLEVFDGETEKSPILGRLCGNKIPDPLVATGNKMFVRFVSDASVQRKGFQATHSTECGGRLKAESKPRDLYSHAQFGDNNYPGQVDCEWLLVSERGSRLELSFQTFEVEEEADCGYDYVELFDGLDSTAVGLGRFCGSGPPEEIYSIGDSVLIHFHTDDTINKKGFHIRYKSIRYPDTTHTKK

For `CCCCC[C@@H](C(=O)NCNC(=O)c1cccc(-c2ccc(CC(=O)O)c(OCC)c2)c1)[C@@H](CC)N(O)C=O`, the concentration for half-maximal inhibition (IC50) is < 398 nM in test [1]; < 631 nM in test [2]; < 126 nM in test [3]; < 251 nM in test [4]; < 20 µM in test [5]; < 1580 nM in test [6].

For `CCCCC[C@@H](C(=O)NCNC(=O)c1cccc(-c2ccc(CC(=O)N[C@@H](CC(=O)O)C(=O)O)c(OCC)c2)n1)[C@@H](CC)N(O)C=O`, the 50% inhibitory concentration (IC50) is < 398 nM in test [1]; < 631 nM in test [2]; < 126 nM in test [3]; < 251 nM in test [4]; < 20 µM in test [5]; < 1580 nM in test [6].

With `CCCCC[C@@H](C(=O)NCNC(=O)c1cccc(-c2ccc(C(=O)O)c(C(=O)O)c2)n1)[C@@H](CC)N(O)C=O`, the half-inhibitory concentration (IC50) in test [1] is < 398 nM; in test [2], < 631 nM; in test [3] it was < 126 nM; in test [4], < 251 nM; in test [5] it was < 20 µM.

With `CCCCC[C@@H](C(=O)NCNC(=O)c1ccnc(-c2ccc(C(=O)O)c(OCC)c2)n1)[C@@H](CC)N(O)C=O`, the IC50 is < 398 nM in test [1]; < 631 nM in test [2]; < 126 nM in test [3]; < 251 nM in test [4]; < 20 µM in test [5]; < 1580 nM in test [6].

Consider `CCCCC[C@@H](C(=O)NCNC(=O)c1cccc(-c2ccc(C(=O)N[C@@H](CC(=O)O)C(=O)O)c(C)c2)n1)[C@@H](CC)N(O)C=O`, for which the 50% inhibitory concentration (IC50) in test [1] is < 398 nM; in test [2], < 631 nM; in test [3] it was < 126 nM; in test [4], < 251 nM; in test [5] it was < 20 µM.

With `CCCCC[C@@H](C(=O)NCNC(=O)c1cccc(-c2ccc(C(=O)N[C@@H](CCC(=O)O)C(=O)O)c(OCC)c2)n1)[C@@H](CC)N(O)C=O`, the 50% inhibitory concentration (IC50) in test [1] is < 398 nM; in test [2], < 631 nM; in test [3] it was < 126 nM; in test [4], < 251 nM; in test [5] it was < 20 µM.

Consider `CCCCC[C@@H](C(=O)NCNC(=O)c1cccc(-c2cc(OCC(=O)O)cc(C(=O)O)c2)n1)[C@@H](CC)N(O)C=O`, for which the half-maximal inhibitory concentration (IC50) in test [1] is < 398 nM; in test [2], < 631 nM; in test [3], < 126 nM; in test [4], < 251 nM; in test [5], < 20 µM.

As to `CCCCC[C@@H](C(=O)NCNC(=O)c1cccc(-c2ccc(C(=O)N[C@@H](CC(=O)O)C(=O)O)c(OCC)c2)n1)[C@@H](CC)N(O)C=O`, the 50% inhibitory concentration (IC50) in test [1] is < 398 nM; in test [2] it was < 631 nM; in test [3], < 126 nM; in test [4], < 251 nM; in test [5], < 20 µM; in test [6] it was < 1580 nM.

For the molecule `CCCCC[C@@H](C(=O)NCNC(=O)c1ccnc(-c2ccc(P(=O)(O)O)c(OCC)c2)n1)[C@@H](CC)N(O)C=O`, the IC50 is < 398 nM in test [1]; < 631 nM in test [2]; < 126 nM in test [3]; < 251 nM in test [4]; < 20 µM in test [5]; < 1580 nM in test [6].

With `CCCCC[C@@H](C(=O)NCNC(=O)c1cccc(-c2ccc(C(=O)N[C@@H](CC(=O)O)C(=O)O)cc2)n1)[C@@H](CC)N(O)C=O`, the IC50 in test [1] is < 398 nM; in test [2], < 631 nM; in test [3], < 126 nM; in test [4], < 251 nM; in test [5] it was < 20 µM.

In the case of `CCCCC[C@@H](C(=O)NCNC(=O)c1cccc(-c2ccc(C(=O)N[C@@H](CCC(=O)O)C(=O)O)cc2)n1)[C@@H](CC)N(O)C=O`, the half-maximal inhibitory concentration (IC50) in test [1] is < 398 nM; in test [2] it was < 631 nM; in test [3], < 126 nM; in test [4], < 251 nM; in test [5], < 20 µM.

As to `CCCCC[C@@H](C(=O)NCNC(=O)c1cccc(-c2cc(C(=O)O)cc(S(N)(=O)=O)c2)n1)[C@@H](CC)N(O)C=O`, the half-inhibitory concentration (IC50) in test [1] is < 398 nM; in test [2], < 631 nM; in test [3], < 126 nM; in test [4] it was < 251 nM; in test [5] it was < 20 µM; in test [6], < 1580 nM.

As to `CCOc1cc(-c2cccc(C(=O)NCNC(=O)[C@H](CCc3ccccc3)[C@@H](CC)N(O)C=O)n2)ccc1C(=O)O`, the half-maximal inhibitory concentration (IC50) in test [3] is < 126 nM; in test [4] it was < 251 nM; in test [5], < 20 µM; in test [6], < 1580 nM.

For `CCCCC[C@@H](C(=O)NCNC(=O)c1cccc(-c2ccc(C(=O)N(CC(=O)O)CC(=O)O)c(OCC)c2)n1)[C@@H](CC)N(O)C=O`, the IC50 in test [1] is < 398 nM; in test [2], < 631 nM; in test [3] it was < 126 nM; in test [4], < 251 nM; in test [5], < 20 µM.

`CCCCC[C@@H](C(=O)NCNC(=O)c1cncc(-c2ccc(P(=O)(O)O)c(OCC)c2)n1)[C@@H](CC)N(O)C=O`: the IC50 was < 398 nM in test [1]; < 631 nM in test [2]; < 126 nM in test [3]; < 251 nM in test [4]; < 20 µM in test [5]; < 1580 nM in test [6].

Consider `CCCCC[C@@H](C(=O)NCNC(=O)c1cccc(-c2cc(OCC)cc(C(=O)O)c2)n1)[C@@H](CC)N(O)C=O`, for which the IC50 is < 398 nM in test [1]; < 631 nM in test [2]; < 126 nM in test [3]; < 251 nM in test [4]; < 20 µM in test [5]; < 1580 nM in test [6].

Take `CCCCC[C@@H](C(=O)NCNC(=O)c1cccc(-c2ccc(C(=O)N[C@H](CC(=O)O)C(=O)O)cc2)n1)[C@@H](CC)N(O)C=O`: the IC50 in test [1] was < 398 nM; in test [2], < 631 nM; in test [3], < 126 nM; in test [4], < 251 nM; in test [5], < 20 µM.

On to `CCCCC[C@@H](C(=O)NCNC(=O)c1cccc(-c2cc(OCC)cc(C(=O)NCCN)c2)n1)[C@@H](CC)N(O)C=O`, for which the IC50 in test [3] was < 126 nM; in test [4] it was < 251 nM; in test [5] it was < 20 µM; in test [6], < 1580 nM.

As a reminder, the IC50 is the concentration that gives 50% inhibition.

Source of the values: ChEMBL document CHEMBL4476883, “Hydroxy formamide derivatives and their use” (2017).
